Key:
Candida albicans = assay: Antibacterial test to Candida albicans (96-hole plate, IC80); assay type: cell-based; details: cultivated at 35° C. for 72 hours, absorbance at 540 nm
Procedure: (Antibacterial Test to Candida albicans) In the test examples, a test was performed on the antibacterial of the compounds according to the present invention to Candida albicans in the methods later described. The culture dilution train containing each compound was prepared by using a 96-hole flat-bottomed plate, and the inoculation mold solution controlled at 1 to 5×10^3 cell/ml beforehand of 10 μl was added to each hole on the plate. After the inoculation, the molds were cultivated at 35° C. for 72 hours, and the propagation of the mold was evaluated by measuring the absorbance at 540 nm. With such a test, the propagation of the mold in this case was compared with the propagation of the mold in the chemical-free test area to find the concentration of a compound where the propagation rate of the mold is suppressed by 80% as IC 80 (80% growth inhibition concentration).

Aspergillus fumigatus = assay: Antibacterial test to Aspergillus fumigatus (96-hole plate, IC80); assay type: cell-based; details: YNB culture with 0.22% low melting point-agarose, 1×10^4 cell/ml, 25° C., 72 hours, absorbance at 620 nm
Procedure: (Antibacterial Test to Aspergillus fumigatus)
In the test example, a test was performed on the antibacterial of the compounds according to the present invention to Aspergillus fumigatus in the method later described.
Aspergillus fumigatus was cultivated in Sabouraud's agar at 37° C. for 3 days, after the spores to be used for the test were formed, the spore suspension was prepared. The spore suspension was suspended in YNB culture to which a 0.22% low melting point-agarose was added so as to allow the final concentration to be 1×10^4 cell/ml, and the solution was poured into each hole on a 96-hole flat-bottomed plate. Next, the dilution trains using each of the compounds according to the present invention were added, the solution was cultivated at 25° C. for 72 hours, and the propagation rate of the mold was evaluated by measuring the absorbance at 620 nm. With such a test, the propagation rate of the mold in the chemical-free test area was compared with this case to find the concentration of the compound where the propagation rate of the mold is suppressed by 80% as IC 80 (80% growth inhibition concentration).

cucumber powdery mildew = assay: Preventive effect of cucumber powdery mildew (wettable powder sprayed on potted cucumber, preventive value); assay type: in vivo; details: wettable powder suspended at 100 mg/l, sprayed on potted cucumber at 100 l/10 a; morbidity investigated 9th to 14th day after inoculation
Procedure: (Preventive Effect of Cucumber Powdery Mildew)
The wettable powders obtained by using each compound were diluted with water and were suspended at a predetermined concentration (100 mg/l) and the solution was sprayed over the first to second leaf stage-cucumber (variety: “Sagamihanpakufushinari”) cultivated by using a square plastic pot (size: 6.4 cm×6.4 cm) at a rate of 100 1/10 a.
After the sprayed leaves were air-dried, the spore was inoculated over the aforementioned air-dried leaves from the contracted leaves with a brush, and the contraction was performed in a glass greenhouse (temperature: 20 to 24° C. and relative humidity: 20 to 70 RH). The morbidity rate was investigated based on the same investigation standard as that in the preventive effect test of the cucumber gray mold on 9th to 14th day after the inoculation, and the preventive value was calculated according to the aforementioned formula 2.

cucumber gray mold = assay: Preventive effect test of cucumber gray mold (wettable powder sprayed on potted cucumber, preventive value); assay type: in vivo; details: wettable powder suspended at 250 mg/l, sprayed on potted cucumber at 100 l/10 a; morbidity investigated 4th to 6th day after inoculation
Procedure: (Preventive Effect Test of Cucumber Gray Mold)
The wettable powders obtained by using each compound were diluted with water and were suspended at a predetermined concentration (250 mg/l) and the solution was sprayed over the first to second leaf stage-cucumber (variety: “Sagamihanpakufushinari”) cultivated by using a square plastic pot (size: 6.4 cm×6.4 cm) at a rate of 100 1/10 a.
After the sprayed leaves were air-dried, a paper disk where the solution of the spore of the gray mold suspended with water was impregnated was put on the aforementioned sprayed leaves, and the leaves were contracted in a glass greenhouse (temperature: 20 to 24° C. and relative humidity: 20 to 70 RH). The morbidity rate was investigated based on the following investigation standard on 4th to 6th day after the inoculation and the preventive value was calculated according to the following formula 2.

[1] = system: Erysiphe graminis f. sp tritici; assay: Preventive effect test of wheat powdery mildew (wettable powder sprayed on potted wheat, preventive value); assay type: in vivo; details: wettable powder suspended at 250 mg/l, sprayed on potted wheat at 100 l/10 a; morbidity investigated 9th to 14th day after inoculation
Procedure: (Preventive Effect Test of Erysiphe graminis f. sp […])
The wettable powders obtained by using each compound were diluted with water and were suspended at a predetermined concentration (250 mg/l) and the solution was sprayed over the first to second leaf stage-wheat (variety. Agriculture and Forestry No. 64) cultivated by using a square plastic pot (size: 6.4 cm×6.4 cm) at a rate of 100 1/10 a (are).
After the sprayed leaves were air-dried, the suspension of the spore of Erysiphe graminis f. sp tritici germ sampled from the contracted leaves were sprayed and inoculated over the sprayed leaf after air-dried, the leaves were kept at 20 to 24° C. under a high-humidity condition for 24 hours, then, the leaves were subjected to still standing in a greenhouse (temperature: 20 to 24° C. and relative humidity: 20 to 70 RH). The morbidity rate was investigated based on the following investigation standard on 9th to 14th day after the inoculation and the preventive value was calculated according to the following formula 1.

[2] = system: Pseudocercosporella herpotrichoides; assay: Antibacterial test to various phytopathogen, PDA plate culture, suppression of mold elongation; assay type: cell-based; details: Oculimacula yallundae, final concentration 100 mg/l, 1 to 3 days, read-out: Inhibition Rate of Growth (suppression rate of the mold elongation, 5-step grade) P.h.
Procedure: (§1) (Antibacterial Test to Various Phytopathogen)
(§2) In the test examples, a test was performed on the antibacterial of the compounds according to the present invention to various phytopathogenic molds in the methods later described.
(§3) The compounds of 10 mg were each weighed and they were each dissolved in dimethylsulfoxide of 1 ml. The solution of 0.6 ml was added to PDA culture medium (potato-dextrose-agar culture medium) of 60 ml at about 60° C, the solutions were well mixed in an Erlenmeyer flask of 100 ml, and the solution was poured into a Schale and was solidified therein to prepare a plate culture containing the compound according to the present invention of final concentration of 100 mg/l.
(§4) On the other hand, the sample molds on the plate cultured beforehand were punched by a cork borer of diameter of 4 mm, and they were inoculated on the plate culture containing the aforementioned chemical material. After the inoculation, the molds were inoculated at the appropriate growth temperatures of each mold (for the appropriate growth temperatures, for example, the Reference, LIST OF CULTURE 1996 MICROORGANISM 10th edition published by Institute for Fermentation can be referred to.) for 1 to 3 days, the growth rates of the molds were evaluated by measuring the diameter of a colony. The growth rate of the mold thus obtained on the plate culture containing the chemical material is compared with the growth rate of the mold in the non-addition area of the chemical material to find the suppression rate of the mold elongation by the following formula 3. R=100 (dc−dt)/dc (Formula 3) [wherein, R is the suppression rate of the mold elongation (%), dc is the diameter of a colony on an untreated plate and dt is the diameter of a colony on a chemical-treated plate, respectively.]
(§5) • 5: Mold whose suppression rate of the mold elongation is • 90% or higher • 4: Mold whose suppression rate of the mold elongation is less than 90% and 70% or higher • 3: Mold whose suppression rate of the mold elongation is less than 70% and 40% or higher • 2: Mold whose suppression rate of the mold elongation is less than 40% and 20% or higher • 1: Mold whose suppression rate of the mold elongation is less than 20%
(§6) In addition, the meanings of the abbreviated letters in Table 22 are as follows: • B. c.; Botrytis cinerea • P. h.; Pseudocercosporella herpotrichoides • M. n.; Microdohium nivale • L. n.; Leptosphaeria nodorum

Microdohium nivale = assay: as above; assay type: cell-based; details: final concentration 100 mg/l, 1 to 3 days, read-out: Inhibition Rate of Growth (suppression rate of the mold elongation, 5-step grade) M.n.
Procedure: as §1, §2, §3, §4, §5, §6

Leptosphaeria nodorum = assay: as above; assay type: cell-based; details: Parastagonospora nodorum, final concentration 100 mg/l, 1 to 3 days, read-out: Inhibition Rate of Growth (suppression rate of the mold elongation, 5-step grade) L.n.
Procedure: as §1, §2, §3, §4, §5, §6

Botrytis cinerea = assay: as above; assay type: cell-based; details: Botrytis cinerea, final concentration 100 mg/l, 1 to 3 days, read-out: Inhibition Rate of Growth (suppression rate of the mold elongation, 5-step grade) B.c.
Procedure: as §1, §2, §3, §4, §5, §6

Venturia inaequalis = assay: as above; assay type: cell-based; details: Venturia inaequalis, final concentration 100 mg/l, 1 to 3 days, read-out: Inhibition Rate of Growth (suppression rate of the mold elongation, 5-step grade) V.i.
Procedure: as §1, §2, §3, §4, §5
V. i.: Venturia inaequalis

`CC(C)(CNCc1c[nH]cn1)Cc1ccc(F)cc1F` [Compound I-12] was tested, and the “80% Growth Inhibition Concentration (IC80)” value (Candida albicans) was 18 µg/mL.

In the case of `CC(C)(CNCc1c[nH]cn1)Cc1ccc(C(C)(C)C)cc1` [Compound I-11], the “80% Growth Inhibition Concentration (IC80)” value (Candida albicans) is reported as 150 µg/mL.

For `CC(C)(CNCc1ccncn1)Cc1ccc(C(C)(C)C)cc1` [Compound I-10], the “80% Growth Inhibition Concentration (IC80)” value (Candida albicans) was 75 µg/mL and the “80% Growth Inhibition Concentration (IC80)” value (Aspergillus fumigatus) was 38 µg/mL.

For `CC(C)(CNCc1cnccn1)Cc1ccc(C(C)(C)C)cc1` [Compound I-4, N-[3-(4-t-butylphenyl)-2,2-dimethylpropyl]-2-pyrazylmethylamine], the “80% Growth Inhibition Concentration (IC80)” value (Candida albicans) was 75 µg/mL and the “80% Growth Inhibition Concentration (IC80)” value (Aspergillus fumigatus) was 75 µg/mL.

`CC(C)(CNCc1ccc(Cl)nc1)Cc1ccc(OC(F)(F)F)cc1` [Compound I-45, 6-chloro-N-[2,2-dimethyl-3-(4-trifluoromethoxyphenyl)propyl]-3-pyridylmethylamine] was tested, and the “Preventive Value (%)” value (cucumber powdery mildew) was 100%, the “Preventive Value (%)” value (cucumber gray mold) was 100% and the “Preventive Value (%)” value [1] was 100%. For the same compound, the inhibition at 100 µg/mL [2] was at least 90%, the inhibition at 100 µg/mL (Microdohium nivale) was at least 90% and the inhibition at 100 µg/mL (Leptosphaeria nodorum) was at least 90%. It also gave an inhibition at 100 µg/mL (Botrytis cinerea) of at least 90% and an inhibition at 100 µg/mL (Venturia inaequalis) of at least 90%.

`Cn1cc(CNCC(C)(C)Cc2ccc(C(C)(C)C)cc2)cn1` [Compound I-6] was tested, and the “80% Growth Inhibition Concentration (IC80)” value (Candida albicans) was 18 µg/mL and the “80% Growth Inhibition Concentration (IC80)” value (Aspergillus fumigatus) was 9 µg/mL.
